How the values were obtained:
[1] = biological target: Carbonic anhydrase 5B, mitochondrial (Homo sapiens, UniProt Q9Y2D0)
[2] = biological target: Carbonic anhydrase 5A, mitochondrial (Homo sapiens, UniProt P35218)
Sequence of Carbonic anhydrase 5A, mitochondrial (P35218 whole entry): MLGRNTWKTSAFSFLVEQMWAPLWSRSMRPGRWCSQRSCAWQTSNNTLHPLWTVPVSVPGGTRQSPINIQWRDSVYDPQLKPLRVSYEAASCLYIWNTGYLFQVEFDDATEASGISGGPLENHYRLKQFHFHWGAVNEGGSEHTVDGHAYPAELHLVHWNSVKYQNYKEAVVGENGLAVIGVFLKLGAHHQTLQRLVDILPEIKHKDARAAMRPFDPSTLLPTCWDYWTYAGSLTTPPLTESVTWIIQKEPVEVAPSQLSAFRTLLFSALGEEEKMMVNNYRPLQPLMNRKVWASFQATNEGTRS

Sequence of Carbonic anhydrase 5B, mitochondrial (Q9Y2D0 whole entry): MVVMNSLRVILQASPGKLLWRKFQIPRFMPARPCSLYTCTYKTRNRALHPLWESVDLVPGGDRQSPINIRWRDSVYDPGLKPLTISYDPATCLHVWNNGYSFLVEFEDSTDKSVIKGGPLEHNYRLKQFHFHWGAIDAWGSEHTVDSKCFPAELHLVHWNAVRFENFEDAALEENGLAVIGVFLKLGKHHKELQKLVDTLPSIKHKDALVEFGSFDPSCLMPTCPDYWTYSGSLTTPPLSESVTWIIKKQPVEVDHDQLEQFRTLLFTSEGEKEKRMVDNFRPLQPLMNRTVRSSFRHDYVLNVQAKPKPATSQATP

With `NNc1ccccc1S(N)(=O)=O` the Ki [1] was 3.4 µM and the Ki [2] was 9.6 µM.

In the case of `Nc1nnc(S(N)(=O)=O)s1`, the Ki [1] is reported as 2.15 µM and the Ki [2] is reported as 2.3 µM.

With `Nc1ccc(S(=O)(=O)NCc2ccc(S(N)(=O)=O)cc2)cc1` the Ki [1] was 0.024 µM and the Ki [2] was 0.176 µM.

`Nc1cc(Cl)c(S(N)(=O)=O)cc1S(N)(=O)=O` showed a Ki [1] of 6.21 µM.

In the case of `Nc1ccc(S(N)(=O)=O)cc1I`, the Ki [1] is reported as 3.3 µM and the Ki [2] is reported as 9.4 µM.

`Nc1ccc(S(=O)(=O)Nc2nnc(S(N)(=O)=O)s2)cc1` was tested, and the Ki [1] was 0.03 µM and the Ki [2] was 0.034 µM.

In the case of `NS(=O)(=O)c1nnc(-c2ccccc2Cl)s1`, the Ki [1] is reported as 0.03 µM and the Ki [2] is reported as 0.043 µM.

For `Nc1nccc(Nc2ccc(S(N)(=O)=O)cc2)n1`, the Ki [1] was 10.2 µM and the Ki [2] was 17 µM.

`NS(=O)(=O)c1nc2ccc(O)cc2s1` gave a Ki [1] of 0.041 µM and a Ki [2] of 0.054 µM.

Work on `Nc1ccccc1S(N)(=O)=O` yielded a Ki [1] of 9.56 µM and a Ki [2] of 15.3 µM.

`Nc1ccc(S(N)(=O)=O)cc1Br` gave a Ki [1] of 3.54 µM and a Ki [2] of 7.6 µM.

`Cn1nc(S(N)(=O)=O)sc1=N` showed a Ki [1] of 2.08 µM and a Ki [2] of 2.16 µM.

For `NS(=O)(=O)c1ccc(CCO)cc1`, the Ki [1] was 7 µM and the Ki [2] was 8.7 µM.

For `Nc1ccc(S(N)(=O)=O)cc1F`, the Ki [1] was 4.22 µM and the Ki [2] was 9.3 µM.

Molecule `NS(=O)(=O)c1ccc(CO)cc1` has a Ki [1] of 7.45 µM and a Ki [2] of 9.3 µM.

Work on `NCCc1ccc(S(N)(=O)=O)cc1` yielded a Ki [1] of 8.95 µM and a Ki [2] of 42.4 µM.

Molecule `Nc1ccc(S(N)(=O)=O)cc1Cl` has a Ki [1] of 4.3 µM and a Ki [2] of 7.4 µM.

`Nc1ccc(S(=O)(=O)NCCc2ccc(S(N)(=O)=O)cc2)cc1` showed a Ki [1] of 0.042 µM and a Ki [2] of 0.121 µM.

`NNc1ccc(S(N)(=O)=O)cc1` showed a Ki [1] of 3.5 µM and a Ki [2] of 7.7 µM.

`NS(=O)(=O)c1ccc(S(=O)(=O)Nc2cccc3c(Cl)c[nH]c23)cc1` was tested, and the Ki [1] was 0.023 µM and the Ki [2] was 0.079 µM.

`Nc1cc(C(F)(F)F)c(S(N)(=O)=O)cc1S(N)(=O)=O` [2,4-DISULFAMYLTRIFLUOROMETHYLANILINE] gave a Ki [1] of 6.56 µM.

`CCN[C@H]1CN(CCCOC)S(=O)(=O)c2sc(S(N)(=O)=O)cc21` [BRINZOLAMIDE] was tested, and the Ki [1] was 0.03 µM and the Ki [2] was 0.05 µM.

For `NS(=O)(=O)c1ccc(C(=O)O)cc1` [CARZENIDE], the Ki [1] was 1.56 µM and the Ki [2] was 2.65 µM.

`NCc1ccc(S(N)(=O)=O)cc1` [MAFENIDE] showed a Ki [1] of 12.3 µM and a Ki [2] of 27.6 µM.

Work on `Cc1ccc(S(N)(=O)=O)cc1` [P-TOLUENESULFONAMIDE] yielded a Ki [1] of 2.43 µM and a Ki [2] of 4.7 µM.

Work on `Nc1ccc(S(N)(=O)=O)cc1` [SULFANILAMIDE] yielded a Ki [2] of 32 µM.

With `CC1(C)O[C@@H]2[C@@H](CO[C@@]3(COS(N)(=O)=O)OC(C)(C)O[C@@H]23)O1` [TOPIRAMATE] the Ki [1] was 0.03 µM and the Ki [2] was 0.063 µM.
